Read-outs that look alike come from different tables or passages of the source. Marks after values point to notes of the source that are not given here.
How the values were obtained:
[1] = biological target: T1, recombinant NMDA receptors NR1/NR2A (Homo sapiens, UniProt Q05586+Q12879); test: Inhibition of NMDA evoked cytosolic calcium elevations in transfected HEK293 cells; type: cell-based; settings: for inhibition at 10 µM / inhibition at 15 µM: HEK293; for inhibition at 10 µM: read-out: NR1-3/NR2A % inhibition at 10 μM
T1 construct: expressed in transfected cells
T1 sequence (Q12879 23-1464, other chains not shown): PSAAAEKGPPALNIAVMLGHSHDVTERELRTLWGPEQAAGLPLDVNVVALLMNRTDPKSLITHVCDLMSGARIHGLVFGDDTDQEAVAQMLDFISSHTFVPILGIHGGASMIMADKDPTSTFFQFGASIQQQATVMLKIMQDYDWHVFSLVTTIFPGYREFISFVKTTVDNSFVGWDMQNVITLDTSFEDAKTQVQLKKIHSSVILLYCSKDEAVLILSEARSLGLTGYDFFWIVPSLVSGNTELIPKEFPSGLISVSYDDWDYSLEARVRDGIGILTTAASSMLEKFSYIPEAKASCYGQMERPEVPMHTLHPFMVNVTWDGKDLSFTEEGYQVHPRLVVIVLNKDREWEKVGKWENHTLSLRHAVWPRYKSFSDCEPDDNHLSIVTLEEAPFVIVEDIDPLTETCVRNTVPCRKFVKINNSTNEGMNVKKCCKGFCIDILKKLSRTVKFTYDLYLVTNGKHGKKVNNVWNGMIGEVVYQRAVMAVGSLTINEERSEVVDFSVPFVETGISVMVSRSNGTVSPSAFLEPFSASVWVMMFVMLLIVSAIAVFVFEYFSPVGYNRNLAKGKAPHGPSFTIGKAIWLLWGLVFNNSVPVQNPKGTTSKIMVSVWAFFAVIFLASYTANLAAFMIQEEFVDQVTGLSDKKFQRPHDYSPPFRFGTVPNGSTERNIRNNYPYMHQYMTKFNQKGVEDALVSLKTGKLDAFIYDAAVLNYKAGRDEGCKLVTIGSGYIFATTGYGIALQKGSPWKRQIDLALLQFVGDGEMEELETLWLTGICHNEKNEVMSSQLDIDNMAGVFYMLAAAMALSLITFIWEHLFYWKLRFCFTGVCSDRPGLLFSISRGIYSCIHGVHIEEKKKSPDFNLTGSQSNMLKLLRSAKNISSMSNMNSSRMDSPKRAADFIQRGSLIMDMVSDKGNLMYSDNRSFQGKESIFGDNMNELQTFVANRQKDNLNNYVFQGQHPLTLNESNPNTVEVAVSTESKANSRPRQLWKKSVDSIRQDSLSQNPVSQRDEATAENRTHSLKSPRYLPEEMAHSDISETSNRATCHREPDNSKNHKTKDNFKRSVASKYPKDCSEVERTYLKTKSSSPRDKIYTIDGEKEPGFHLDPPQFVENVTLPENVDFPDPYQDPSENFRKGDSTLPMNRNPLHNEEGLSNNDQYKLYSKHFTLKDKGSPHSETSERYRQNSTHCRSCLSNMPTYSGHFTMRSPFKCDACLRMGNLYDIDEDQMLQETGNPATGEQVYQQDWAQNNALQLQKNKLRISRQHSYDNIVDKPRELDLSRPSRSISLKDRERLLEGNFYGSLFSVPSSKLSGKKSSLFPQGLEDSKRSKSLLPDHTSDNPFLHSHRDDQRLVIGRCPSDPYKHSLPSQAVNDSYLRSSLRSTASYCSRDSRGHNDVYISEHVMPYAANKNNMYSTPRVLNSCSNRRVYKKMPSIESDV
Procedure: (1997); Neurochemistry International, 43, 19-29. (2003)]. […] Compounds were tested for their inhibitory action on NMDA evoked cytosolic calcium elevations in fluorescent calcium measurements. Studies were performed 48-72 h after addition of the inducing agent. Ketamine ([…] was also present during the induction in order to prevent cytotoxicity.
(§1) Dose-response curves and IC50-values were calculated using data derived from at least three independent experiments. Inhibitory potency of a compound at a single concentration point was expressed as percent inhibition of the NMDA response. Sigmoidal concentration-inhibition curves were fit to the data and IC50 values were determined as the concentration that produces half of the maximal inhibition caused by the compound.

[2] = biological target: T2, NR2B containing NMDA receptors (Rattus norvegicus, UniProt P35439+Q00960); test: NMDA antagonist potency by fluorimetric intracellular calcium measurement in rat cortical cell culture; type: cell-based; settings: fluorimetric method, 40 μM NMDA
T2 construct: primary neocortical cell cultures derived from 17 day old Charles River rat embryos; endogenous in cells; host or cells: primary rat embryonic (E17) neocortical cell culture, 3-7 days in vitro
T2 sequence (Q00960 27-1482, other chains not shown): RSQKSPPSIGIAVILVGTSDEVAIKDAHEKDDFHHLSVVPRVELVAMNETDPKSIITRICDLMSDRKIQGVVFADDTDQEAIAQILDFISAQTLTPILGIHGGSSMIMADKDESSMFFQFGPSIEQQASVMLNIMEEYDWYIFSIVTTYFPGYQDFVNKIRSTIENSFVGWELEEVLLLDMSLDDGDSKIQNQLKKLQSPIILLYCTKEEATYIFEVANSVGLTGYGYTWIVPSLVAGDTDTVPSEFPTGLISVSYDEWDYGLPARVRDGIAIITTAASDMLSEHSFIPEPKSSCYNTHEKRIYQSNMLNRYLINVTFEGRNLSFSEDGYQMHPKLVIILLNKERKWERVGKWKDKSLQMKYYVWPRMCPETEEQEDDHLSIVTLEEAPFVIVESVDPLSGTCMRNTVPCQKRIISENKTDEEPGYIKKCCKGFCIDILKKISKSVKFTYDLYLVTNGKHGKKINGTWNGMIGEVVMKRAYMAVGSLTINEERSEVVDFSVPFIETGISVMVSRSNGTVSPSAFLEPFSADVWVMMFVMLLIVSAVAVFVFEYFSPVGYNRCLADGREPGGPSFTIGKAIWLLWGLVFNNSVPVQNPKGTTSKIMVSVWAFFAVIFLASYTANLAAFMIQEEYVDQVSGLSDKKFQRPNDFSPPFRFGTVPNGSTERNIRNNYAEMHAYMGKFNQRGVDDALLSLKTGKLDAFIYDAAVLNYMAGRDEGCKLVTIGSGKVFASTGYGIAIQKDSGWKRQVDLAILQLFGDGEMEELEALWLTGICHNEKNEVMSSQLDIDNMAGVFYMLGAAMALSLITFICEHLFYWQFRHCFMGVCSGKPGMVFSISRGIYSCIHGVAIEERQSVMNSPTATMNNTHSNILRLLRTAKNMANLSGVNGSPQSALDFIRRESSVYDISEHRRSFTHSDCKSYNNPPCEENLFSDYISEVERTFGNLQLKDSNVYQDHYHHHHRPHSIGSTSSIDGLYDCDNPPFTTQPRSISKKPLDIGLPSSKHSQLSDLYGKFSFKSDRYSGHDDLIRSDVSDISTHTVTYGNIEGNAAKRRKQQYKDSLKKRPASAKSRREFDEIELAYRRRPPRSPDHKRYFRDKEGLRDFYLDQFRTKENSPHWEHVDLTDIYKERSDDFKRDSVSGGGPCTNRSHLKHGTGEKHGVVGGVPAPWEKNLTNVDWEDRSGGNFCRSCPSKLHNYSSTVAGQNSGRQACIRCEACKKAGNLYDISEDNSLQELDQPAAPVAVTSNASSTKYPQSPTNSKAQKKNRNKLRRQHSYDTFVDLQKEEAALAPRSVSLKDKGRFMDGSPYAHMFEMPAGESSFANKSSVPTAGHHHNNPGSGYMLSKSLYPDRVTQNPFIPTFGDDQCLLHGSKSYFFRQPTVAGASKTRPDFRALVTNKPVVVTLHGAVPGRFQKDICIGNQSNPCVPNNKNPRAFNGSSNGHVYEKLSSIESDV
Procedure: Assessment of NMDA Antagonist Potency In Vitro by Measurement of Intracellular Calcium Concentration with a Plate Reader Fluorimeter in Rat Cortical Cell Culture
The intracellular calcium measurements were carried out on primary neocortical cell cultures derived from 17 day old Charles River rat embryos (for the details on the preparation of neocortical cell culture see Johnson, M. I.; Bunge, R. P. (1992): Primary-cell cultures of peripheral and central neurons and glia. In: Protocols for Neural Cell Culture, eds: Fedoroff, S.; Richardson A., The Humana Press Inc., 51-75. After isolation the cells were plated onto standard 96-well microplates and the cultures were maintained in an atmosphere of 95% air-5% CO2 at 37° C. until the calcium measurements.
The cultures were used for the intracellular calcium measurements after 3-7 days in vitro. The cells at this in vitro age are believed to express predominantly NR2B containing NMDA receptors [Mol. Pharmacol. 45, 846-853. (1994)]. Before the measurement the cells were loaded with a fluorescent Ca^2+-sensitive dye, Fluo-4/AM (2 μM). To stop the loading the cells were washed twice with the solution used for the measurement (140 mm NaCl, 5 mM KCl, 2 mM CaCl2, 5 mM HEPES, 5 mM HEPES-Na, 20 mM glucose, 10 mM glycine, pH=7.4). After washing the test compounds were added to the cells in the above solution (90 μl/well). Intracellular calcium measurements were carried out with a plate reader fluorimeter: elevation of Fluo-4-fluorescence and so, intracellular calcium concentration was induced by application of 40 μM NMDA. Inhibitory potency of the test compounds was assessed by measuring the reduction in the calcium elevation in the presence of different concentrations of the compounds.
as §1

[3] = test system: formalin response (licking/biting of the injected paw); test: Mouse formalin test (second phase); type: in vivo; settings: for ED50: Mus musculus, read-out: Formalin ED50
Procedure: Injection of diluted formalin into the hind paw of rats or mice is known to elicit a biphasic pain-related behaviour measured as time spent by licking/biting of the injured paw. The second phase is generally defined as pain related events detected in the 15-60 min. time interval ater formalin injection, with peak activity at around 30 min. It is known that NMDA receptors are involved in the second phase of response to formalin injection and this behavioural response is sensitive to blockade of NMDA receptors [Dickenson, A. and Besson J.-M. (Editors): Chapter 1, pp. 6-7: Animal models of Analgesia; and Chapter 8, pp. 180-183: Mechanism of Central Hypersensitivity: Excitatory Amino Acid Mechanisms and Their Control—In Pharmacology of Pain. Springer-Verlag (Berlin) 1997.] Therefore, we used the second phase of formalin test to characterize the efficacy of compounds in vivo. Inhibition of the second phase of response is considered to indicate an analgesic effect against chemically-induced persistent pain [Hunskaar, S., et al.: Formalin Test in Mice, a Useful Technique for Evaluating Mild Analgesics, Journal of Neuroscience Methods, 14 (1985) 69-76.]
Male albino Charles River NMRI mice (20-25 g) were used. Prior to the experiment any solid food was withdrawn for approx. 16 hours but the animals had free access to 20% glucose solution. The animals were allowed 1 hour acclimatization period in a glass cylinder (cc. 15 cm in diameter), then moved to an identical cylinder with a mirror placed behind to facilitate observation. The test substances were suspended in 5% tween-80 (10 ml per kg body weight) and administered orally by gavage 15 min before the formalin injection (20 μl of 1% formalin in 0.9% saline injected subcutaneously into the dorsal surface of the right hindpaw). The time spent by licking and biting of the injected paw was measured from 20 to 25 min. after the formalin injection.

locomotor activity = settings: cited from earlier work; for effect on locomotor activity (in words): animal behavioural studies
[4] = test system: spontaneous locomotor activity; test: Spontaneous locomotor activity (LMA) in mice; type: in vivo, mouse; settings: for locomotor stimulation relative to analgesic dose range (in words): mouse, in vivo
Procedure: Male NMRI mice weighing 20-22 g were used in the experiments.
Spontaneous locomotor activity was measured in a four-channel activity monitor. The apparatus consisted of acrylic cages. (43 cm×43 cm×32 cm) equipped with 2×16 pairs of photocells along all the bottom axis of the cage. An additional array of photocells (16 pairs) was placed along two opposite sides of the cage at the height of 10 cm in order to detect rearing responses.
Experimental groups consisted of 10 animals. Thirty minutes after the oral administration of the test compound or vehicle (tween-80), the animals were individually placed in one of four cages for one hour. Horizontal and vertical movements were determined as the number of beam interruptions for one hour at 15 min intervals.
Mean ±SE of horizontal activity data of each group was calculated then percentual changes compared to the control (vehicle-treated) group were determined. A compound was considered to cause locomotor stimulation when its effect exceeded 50% increase in beam interruptions. Consequently, doses defined as free of stimulatory action (UM) produced less than 50% increase.

[5] = read-out: rat cortical cells IC50
[6] = oral, 15 min before formalin, licking time 20 to 25 min
[7] = read-out: Rat cortical cells (NR2B) appr. IC50

## C[C@@H](CN1CCC(Cc2ccccc2)CC1)[C@@H](O)c1ccc(O)cc1 (relative stereo) [Ro 25-6981, R-(R*,S*)-1-(4-hydroxyphenyl)-2-methyl-3-[4-(phenylmethyl)piperidin-1-yl]-1-propanol]
[1]
  NR1-3/NR2A % inhibition at 10 μM: 1.0%
[2]; [5]
  IC50: 0.159 µM
[3]; [6]
  Formalin ED50: >20* mg/kg
Locomotor activity
  effect on locomotor activity (in words): increase locomotor activity
Locomotor activity; listed as Ro 256981
  effect on locomotor activity (in words): no such effect was observed

## O=c1[nH]c2ccc([S+]([O-])CCN3CCC(Cc4ccc(F)cc4)CC3)cc2o1 (stereo not drawn) [CI-1041, 6-{2-[4-(4-fluoro-benzyl)-piperidin-1-yl]-ethanesulfinyl}-3H benzooazol-2-one]
[1]
  inhibition at 10 µM: 21%
[3]; [6]
  ED50: 2.4 mg/kg
[4]; dose 10 mg/kg oral
  LMA % increase: 137%
[4]
  locomotor stimulation relative to analgesic dose range (in words): no separation between the doses causing analgesia and those stimulating locomotor activity

## C[C@@H]([C@@H](O)c1ccc(O)cc1)N1CCC(O)(c2ccccc2)CC1 [CP-101,606]
[1]
  NR1-3/NR2A % inhibition at 10 μM: 2.5%
[3]; [6]
  Formalin ED50: >20* mg/kg
Locomotor activity
  effect on locomotor activity (in words): no such effect was observed
Locomotor activity; i.p.
  dose up to which locomotor stimulating effect is lacking: ≤ 100 mg/kg
Locomotor activity; s.c.
  dose up to which locomotor stimulating effect is lacking: up to 56 mg/kg

## Cc1ccc(CC2(O)CCN(CCOc3ccc(O)cc3)CC2)cc1 [Co-101244, 1-[2-(4-hydroxyphenoxy)ethyl]-4-hydroxy-4-(4-methylbenzyl)piperidine]
[1]
  inhibition at 10 µM: -8.7%

## O=C(CCN1CCC(Cc2ccc(F)cc2)CC1)c1ccc2[nH]c(=O)oc2c1 [EMD 95885]
[1]
  NR1-3/NR2A % inhibition at 10 μM: 0.1%
[2]; [5]
  IC50: 0.035 µM

## O=C(c1nc2ccc(O)cc2[nH]1)N1CCC(=Cc2ccccc2)CC1 [Example 1, (4-Benzylidene-piperidine-1-yl)-(6-hydroxy-1H-benzoimidazol-2-yl)-methanone]
[1]
  inhibition at 15 µM: 33%
[2]; [7]
  IC50: < 0.05 µM
[3]; [6]
  ED50: 2.6 mg/kg
[4]; dose 15 mg/kg oral
  LMA % increase: 27%
[4]; dose 30 mg/kg oral
  LMA % increase: 63%

## Cc1ccc(C=C2CCN(C(=O)c3nc4ccc(O)cc4[nH]3)CC2)cc1 [Example 2, (6-Hydroxy-1H-benzoimidazol-2-yl)-[4-(4-methyl-benzylidene)-piperidine-1-yl]-methanone]
[1]
  inhibition at 15 µM: 34%
[2]; [7]
  IC50: < 0.05 µM

## O=C(c1nc2ccc(O)cc2[nH]1)N1CCC(=Cc2ccc(F)cc2)CC1 [Example 3, [4-(4-Fluoro-benzylidene)-piperidine-1-yl]-(6-hydroxy-1H-benzoimidazol-2-yl)-methanone]
[1]
  inhibition at 15 µM: < 30%
[2]; [7]
  IC50: < 0.05 µM

## O=C(c1nc2ccc(O)cc2[nH]1)N1CCC(=Cc2ccc(Cl)cc2)CC1 [Example 4, [4-(4-Chloro-benzylidene)-piperidine-1-yl]-(6-hydroxy-1H-benzoimidazol-2-yl)-methanone]
[1]
  inhibition at 15 µM: < 30%
[2]; [7]
  IC50: < 0.05 µM

## COc1ccc(C=C2CCN(C(=O)c3nc4ccc(O)cc4[nH]3)CC2)cc1 [Example 5, (6-Hydroxy-1H-benzoimidazol-2-yl)-[4-(4-methoxy-benzylidene)-piperidine-1-yl]-methanone]
[1]
  inhibition at 15 µM: 52%
[2]; [7]
  IC50: < 0.05 µM

## O=C(c1cc2ccc(O)cc2[nH]1)N1CCC(=Cc2ccccc2)CC1 [Example 6, (4-Benzylidene-piperidine-1-yl)-(6-hydroxy-1H-indol-2-yl)-methanone]
[1]
  inhibition at 15 µM: < 30%
[2]; [7]
  IC50: 0.05 to 0.5 µM
[3]; [6]
  ED50: 0.43 mg/kg
[4]; dose 3.75 mg/kg oral
  LMA % increase: 0%
[4]; dose 7.5 mg/kg oral
  LMA % increase: 55%
[4]; dose 15 mg/kg oral
  LMA % increase: 69%

## C[C@]12N[C@H](Cc3ccccc31)c1ccccc12 [MK-801, (+)-5-Methyl-10,11-dihydro-5H-dibenzo[a,d]cyclohepten-5,10-imine]
[3]; po
  ED50: 0.15 mg/kg
[4]; dose 0.1 mg/kg oral
  LMA % increase: 114%
[4]; dose 0.3 mg/kg oral
  LMA % increase: 217%

## O=C(c1cc2ccc(O)cc2[nH]1)N1CCC(Cc2ccccc2)CC1 [“B”, (4-benzyl-piperidin-1-yl)-(6-hydroxy-1H-indol-2-yl)-methanone]
[3]; [6]
  ED50: 1.7 mg/kg
[4]; dose 1.875 mg/kg oral
  LMA % increase: 90%
[4]
  locomotor stimulation relative to analgesic dose range (in words): no separation between the doses causing analgesia and those stimulating locomotor activity

## (benzyl-piperidin-1-yl)-(6-hydroxy-1H-benzoimidazol-2-yl)-methanone [“A”]
[3]; [6]
  Formalin ED50: 1.6 mg/kg
[4]; dose 1.875 mg/kg oral
  LMA % increase: 80%
[4]
  locomotor stimulation relative to analgesic dose range (in words): no separation between the doses causing analgesia and those stimulating locomotor activity

Reference: patent publication US20080300276A1, “Heterocyclic Carboxylic Acide Amide Derivatives” (priority 2004, published 2008)
